Series [1] deals with MCT1 (Rattus norvegicus (Rat), UniProt P53987). The experiment in a line: Test A. MCT1 inhibition via lactate uptake in rat brain endothelial (RBE4) cells. In kind it is cell-based. The following applies: 14C-lactate uptake. Here is the method: Test A. MCT1 Inhibition Via Lactate Uptake Rat Brain Endothelial Cells
The entire lactate uptake studies for the inhibition of MCT1 were carried out on RBE4 (Rat Brain Endothelial 4) cells. The expression of MCT1 on these cells was confirmed by Western Blotting. The cells were plated approximately 20-24 hours before the experiment, the number of cells being approximately 10^5 cells per well. The test compounds were dissolved in DMSO and diluted 1000 times using a solution of HEPES buffer (pH 7.43) which consists of 3 μM ^14C-Lactate and 2 μM L-Lactate. The cells were washed twice with 500 μL of HEPES buffer and the cells were allowed to equilibrate for 15 minutes at 37° C. The HEPES buffer was removed and 250 μL of the test sample was added in triplicates. This was repeated for all the compounds, including the controls (CHC and DMSO). After 15 minutes, the compounds were removed from the well and 500 μL of ice-cold stop buffer (0.1 mM CHC solution in HEPES buffer) was added. The plate was kept on ice. Now, the HEPES buffer in one triplicate was removed and DMSO solution was added and immediately removed and ice-cold stop buffer was added. This was considered as “Zero”. One triplicate was left blank, which was used for protein assay after lysing the cells. The cells were washed twice with ice-cold HEPES buffer and then 250 μL of 0.1M NaOH in 5% Triton-X solution was added and the plate is kept on a shaker for 40 minutes to lyse the cells. 150 μL of the lysed cells was added into 4 mL of the scintillation fluid in a scintillation vial and scintillation count was obtained in disintegrations per minute (dpm). The percent inhibition values were calculated by taking DMSO as minimum. Concentration study (usually 9-12 dilutions) was done to determine the IC50 of each compound.

Series [2] in a line: Toxicity study in BALB/c nude mice containing WiDr colorectal adenocarcinoma xenograft (body weight). In kind it is in vivo. The conditions noted are these: BALB/c nude mice with WiDr xenograft, 8 mg/kg i.p. twice daily. Here is the method: Female BALB/c nude mice weighing ˜20 g were taken and 5.0 10^6 WiDr cancer cells were implanted into their right flanks with a 1:1 mixture of 0.1 mL PBS and matrigel. The tumor was allowed to grow to a size of ˜150 cubic millimeters (14 days). The mice were randomly chosen by chance and assigned into 5 groups (6 mice per group), one group being the control group to which tumor was allowed to grow without any drug administration (food only). The drugs were administered twice daily by P.O. or I.P. Group 1 mice were administered orally with 50 mg/kg of Compound 20. Groups 2, 3 and 4 mice were treated via IP with 10 mg/kg Compound 20, 8 mg/kg of Compound 14 and 238 mg/kg CHC respectively. Body weight changes were recorded every two days for 3 weeks.

A short description of series [3]: Toxicity study in healthy ICR mice (body weight, WBC, RBC). In kind it is in vivo. The following applies: for RBC ± SEM / WBC ± SEM: end of day 22. Here is the method:
60 ICR mice weighing ˜27 grams were randomly assigned into 5 groups (12 animals, 6 male and 6 female per group), one group being the control group without any drug administration (food only). The drugs were administered twice daily by P.O. or I.P. Group 1 and 3 were administered orally with 50 mg/Kg of Compound 20 and 18 mg/Kg of Compound 14 respectively. Group 2 and 4 mice were injected intraperitoneally with 6.67 mg/Kg of Compound 20 and 5.3 mg/Kg of Compound 14 (dissolved in water) respectively. The body weights of mice were recorded daily for 22 days. At the end of the 22nd day, 3 mice were randomly selected from each group and their blood samples were collected for detailed analysis of white blood cell (WBC) and red blood cell (RBC) counts. The mice were then euthanized with CO2.

MCT1, sequence (P53987 whole entry): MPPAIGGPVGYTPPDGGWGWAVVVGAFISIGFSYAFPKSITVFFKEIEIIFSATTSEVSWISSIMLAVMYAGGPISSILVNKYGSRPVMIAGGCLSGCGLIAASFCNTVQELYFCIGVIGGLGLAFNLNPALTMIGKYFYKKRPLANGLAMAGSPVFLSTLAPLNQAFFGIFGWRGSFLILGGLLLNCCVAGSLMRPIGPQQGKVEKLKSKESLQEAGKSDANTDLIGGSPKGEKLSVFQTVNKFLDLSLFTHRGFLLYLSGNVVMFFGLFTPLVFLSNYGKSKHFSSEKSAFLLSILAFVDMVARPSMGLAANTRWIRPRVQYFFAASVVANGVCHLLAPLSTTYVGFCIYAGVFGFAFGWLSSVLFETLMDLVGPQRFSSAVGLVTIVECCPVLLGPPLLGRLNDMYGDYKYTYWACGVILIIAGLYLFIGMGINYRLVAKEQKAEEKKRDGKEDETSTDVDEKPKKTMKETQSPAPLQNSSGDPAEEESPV
MCT1, sequence (P26453 141-388 partner): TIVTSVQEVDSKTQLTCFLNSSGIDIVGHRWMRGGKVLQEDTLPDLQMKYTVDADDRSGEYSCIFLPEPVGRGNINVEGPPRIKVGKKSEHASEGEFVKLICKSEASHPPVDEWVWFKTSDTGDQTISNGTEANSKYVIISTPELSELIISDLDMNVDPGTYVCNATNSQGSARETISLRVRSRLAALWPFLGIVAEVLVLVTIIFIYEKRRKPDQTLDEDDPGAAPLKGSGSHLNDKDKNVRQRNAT

With `CCCCN(CCCC)c1ccc(/C=C(\C#N)C(=O)O)cc1` [Compound 4], the half-maximal inhibitory concentration (IC50) in series [1] stood at 0.026 µM.

Regarding `CCCCCN(CCCCC)c1ccc(/C=C(\C#N)C(=O)O)cc1` [Compound 5], in series [1], the IC50 was determined as 0.12 µM.

`CCCCCCN(CCCCCC)c1ccc(/C=C(\C#N)C(=O)O)cc1` [Compound 6] gave an IC50 in series [1] of 0.95 µM.

`C=CCN(CC=C)c1ccc(/C=C(\C#N)C(=O)O)cc1` [Compound 7] came in with a half-maximal inhibitory concentration (IC50) in series [1] of 0.088 µM.

On to `C#CCN(CC#C)c1ccc(/C=C(\C#N)C(=O)O)cc1` [Compound 8], for which the IC50 in series [1] amounted to 0.34 µM.

`CC(C)CN(CC(C)C)c1ccc(/C=C(\C#N)C(=O)O)cc1` [Compound 9] registered an IC50 in series [1] of 0.066 µM.

`N#C/C(=C\c1ccc(N(Cc2ccccc2)Cc2ccccc2)cc1)C(=O)O` [Compound 10] registered a half-inhibitory concentration (IC50) in series [1] of 0.043 µM.

Regarding `N#C/C(=C\c1ccc(N2CCCC2)cc1)C(=O)O` [Compound 11], in series [1], the midpoint of inhibition, the IC50, lay at 0.064 µM.

For `N#C/C(=C\c1ccc(N2CCCCC2)cc1)C(=O)O` [Compound 12], the IC50 in series [1] was determined as 0.11 µM.

As for `CCCN(CCC)c1ccc(/C=C(\C#N)C(=O)O)c(OC)c1` [Compound 13], inhibition in series [1] was half-maximal at 0.0095 µM (IC50).

`CCCCN(CCCC)c1ccc(/C=C(\C#N)C(=O)O)c(OC)c1` [Compound 14] came in with a 50% inhibitory concentration (IC50) in series [1] of 0.0076 µM. Moreover, the “Weight in grams (Day 0)” value in series [2] (Day 0) is 22.08 grams. For the same molecule, the “Weight in grams (Day 22)” value in series [2] (Day 22) is listed as 23.50 grams. Moreover, in series [3] (5.3 mg/kg i.p. twice daily), the “Weight in grams (Day 0)” value came out at 27.05 grams, the “Weight in grams (Day 22)” value amounted to 32.53 grams, the “RBC ± SEM” value is recorded as 1.58 ± 0.05 10^13/L and the “WBC ± SEM” value was 5.80 ± 0.72 10^10/L. Further, in series [3] (18 mg/kg p.o. twice daily), the “Weight in grams (Day 0)” value was 27.04 grams, the “Weight in grams (Day 22)” value was 32.60 grams, the “RBC ± SEM” value is reported as 1.58 ± 0.02 10^13/L and the “WBC ± SEM” value was 4.57 ± 0.49 10^10/L.

In series [1], `CCCCCN(CCCCC)c1ccc(/C=C(\C#N)C(=O)O)c(OC)c1` [Compound 15] came in with an IC50 of 0.023 µM.

Molecule `C=CCN(CC=C)c1ccc(/C=C(\C#N)C(=O)O)c(OC)c1` [Compound 16] registered a 50% inhibitory concentration (IC50) in series [1] of 0.025 µM.

Regarding `C#CCN(CC#C)c1ccc(/C=C(\C#N)C(=O)O)c(OC)c1` [Compound 17], the concentration for half-maximal inhibition (IC50) in series [1] came out at 0.091 µM.

For `COc1cc(N(CC(C)C)CC(C)C)ccc1/C=C(\C#N)C(=O)O` [Compound 18], 0.015 µM corresponded to half-maximal inhibition in series [1] (IC50).

In series [1], `COc1cc(N(Cc2ccccc2)Cc2ccccc2)ccc1/C=C(\C#N)C(=O)O` [Compound 19] registered a concentration for half-maximal inhibition (IC50) of 0.019 µM.

In series [1], `COc1cc(N2CCCC2)ccc1/C=C(\C#N)C(=O)O` [Compound 21] came in with a concentration for half-maximal inhibition (IC50) of 0.059 µM.

For the molecule `CCCN(CCC)c1ccc2cc(C(=O)O)c(=O)oc2c1` [Compound 22], in series [1], the IC50 came to 0.299 µM.

Regarding `C=CCN(CC=C)c1ccc2cc(C(=O)O)c(=O)oc2c1` [Compound 23], it took 0.25 µM to reach half-maximal inhibition in series [1] (IC50).

The molecule `C#CCN(CC#C)c1ccc2cc(C(=O)O)c(=O)oc2c1` [Compound 24] yielded an IC50 in series [1] of 0.15 µM.

With `O=C(O)c1cc2ccc(N(Cc3ccccc3)Cc3ccccc3)cc2oc1=O` [Compound 25], the IC50 in series [1] turned out to be 0.048 µM.

Consider `O=C(O)c1cc2ccc(N3CCCC3)cc2oc1=O` [Compound 26], for which the IC50 in series [1] worked out at 0.22 µM.

In series [1], `O=C(O)c1cc2ccc(N(Cc3ccc(F)cc3)Cc3ccc(F)cc3)cc2oc1=O` [Compound 27] gave a concentration for half-maximal inhibition (IC50) of 0.2 µM.

As for `O=C(O)c1cc2ccc(N(Cc3ccc(Cl)cc3)Cc3ccc(Cl)cc3)cc2oc1=O` [Compound 28], in series [1], it took 0.92 µM to reach half-maximal inhibition (IC50).

In series [1], `O=C(O)c1cc2ccc(N(Cc3ccc4c(c3)OCO4)Cc3ccc4c(c3)OCO4)cc2oc1=O` [Compound 29] returned a concentration for half-maximal inhibition (IC50) of 0.11 µM.

Source of the values: patent US9296728B2, “Therapeutic compounds” (Regents of the University of Minnesota, priority 2012, dated 2016).
